Patent US11071775B2, “Combination immunotherapy for treating cancer” (H. Lee Moffitt Cancer Center and Research Institute, Inc., priority 2015, dated 2021)
Read-outs that look alike come from different tables or passages of the source.

Experiments:
[1] = tested on: Retinoid Acid Receptor (RAR) and Retinoid X Receptor (RXR); conditions: cited from earlier work
Gr-1+ cells [2] = conditions: tumor-bearing mice, cited from earlier work
human MDSCs = conditions: in vitro; cited from earlier work
Gr-1+ cells [3] = conditions: in vitro; cited from earlier work
MDSCs = experiment: ATRA in patients with metastatic renal cell carcinoma: MDSC and DC; type: in vivo, human
MDSC = experiment: Randomized phase II study: proportion of MDSC before and after immunization; type: in vivo, human
Protocol: To assess immune response, PBMCs were collected from patients at different time points during the treatment (FIG. 4) and kept frozen in liquid nitrogen. All samples from one patient were analyzed simultaneously to reduce inter-experimental variability. PBMCs were thawed, incubated overnight in complete medium (RPMI-1640 supplemented with antibiotics and 10% FBS) and then used in experiments. Cell viability was greater than 80%.

ES-SCLC = experiment: Randomized phase II study in ES-SCLC (NCT00617409): objective response and survival; type: in vivo, human; conditions: arm A (observation, no vaccine)
Description: Patients with ES-SCLC were enrolled to this randomized phase II study. […] After receiving initial chemotherapy, (4-6 cycles of a standard platinum/etoposide regimen as first-line chemotherapy), patients were enrolled and randomized. Additional eligibility included; stable disease (SD) or better with Eastern Cooperative Oncology Group (ECOG) performance status of 0 to 1, and adequate organ function were screened for initial registration approximately 4-6 weeks after the completion of first-line chemotherapy. Prophylactic cranial irradiation (PCI) was permitted.
Each vaccine consisted of 2-5×10^6 Ad-p53 DCs. Cells were injected intradermally, at two-week intervals for three times (three vaccine doses). Patients were restaged approximately 2 weeks after the 3rd vaccine dose. Patients without signs of disease progression (PD) underwent a second leukapheresis and then vaccinated 3 more times at 4-week intervals. Patients on Arm C also received 150 mg/m^2 ATRA for 3 days prior to each vaccine administration (followed by vaccine administration on the next day).
All patients were followed until evidence of PD at which time they received salvage or second line chemotherapy with single agent paclitaxel (200 mg/m2 IV every 3 weeks, 4-6 cycles).
The primary objective was to evaluate the efficacy of second line paclitaxel in the two experimental regimens (Arms B and C). […]

[4] = tested on: PD-L1 expressing or negative tumors; conditions: cited from earlier work; for overall response rate (ORR): all patients
advanced stage NSCLC = conditions: cited from earlier work
[5] = 38 patients; cited from earlier work
[6] = cited from earlier work

For `CC1=C(/C=C/C(C)=C/C=C/C(C)=C/C(=O)O)C(C)(C)CCC1` [ATRA, all-trans-retinoic acid], the “relative affinity for RAR and RXR” value [1] is listed as “higher affinity to RAR”, the “presence of Gr-1+ cells” value (Gr-1+ cells [2]; in vivo administration) is listed as “dramatically reduces the presence of Gr-1^+ cells” and the “effect of tumor vaccines” value (Gr-1+ cells [2]) is listed as “improves the effect of tumor vaccines”. For the same compound, the “fraction of MDSCs becoming DC-like” value (human MDSCs) was “⅔”, the “fraction of MDSCs becoming myeloid” value (human MDSCs) was “⅓” and the “differentiation and immunosuppressive effect of Gr-1+ cells” value (Gr-1+ cells [3]) was “differentiates these cells in vitro and removes their immunosuppressive effect”. For the same compound, the MDSC/DC ratio (MDSCs) was “improved MDSC/DC ratio to control levels”, the “presence of MDSC” value (MDSCs) was “significantly decreased the presence of MDSC” and the “proportion of CD11b+CD14−CD33+ MDSC” value (MDSC; patients treated with ATRA (arm C), p=0.03) was “decreased less dramatically but also significantly”. The “presence of Lin−HLA-DR−CD33+ MDSC” value (MDSC; patients treated with ATRA (arm C: vaccine plus 150 mg/m2 ATRA), p=0.02) was “decreased more than two-fold”.
For `CC(=O)O[C@H]1C(=O)[C@@]2(C)[C@H]([C@H](OC(=O)c3ccccc3)[C@]3(O)C[C@H](OC(=O)[C@H](O)[C@@H](NC(=O)c4ccccc4)c4ccccc4)C(C)=C1C3(C)C)[C@]1(OC(C)=O)CO[C@@H]1C[C@@H]2O` [paclitaxel], the “OR to paclitaxel (or other second line treatment)” value (ES-SCLC) was 1/11.
In the case of “MK-3475: humanized monoclonal antibody of the IgG4/kappa isotype blocking the interaction between PD-1 and its ligands”, the ORR ([4]; PD-L1 expressing tumors, RECIST, (16-30%)) is listed as 23%, the ORR ([4]; PD-L1 expressing tumors, irRC, 95% CI 14-26%) is listed as 19% and the ORR ([4]; PD-L1 negative tumors, RECIST, (2-23%)) is listed as 9%. The ORR ([4]; PD-L1 negative tumors, irRC, 95% CI 4-27%) was 13%, the “overall response rate (ORR)” value ([4]; RECIST v1.1, 95% CI 15-26%) was 20% and the “overall response rate (ORR)” value ([4]; irRC, 10 mg/kg Q2W or Q3W, 95% CI 13-24%) was 18%. The “patients responding to therapy” value (advanced stage NSCLC; PD-L1 high tumors, Six of 9, 95% CI 30-93%) was 67%, the “patients responding to therapy” value (advanced stage NSCLC; PD-L1 low tumors, 0/22, 95% CI 0-15%) was 0% and the “overall objective response rate” value (advanced stage NSCLC; investigator-assessed irRC, 38 patients) was 24%. For the same compound, the drug-related deaths [5] was “no drug-related deaths”, the “grade 3/4 event (grade 3 pulmonary edema)” value [5] was “one” and the “patients who developed grade 3/4 pneumonitis” value ([6]; 2 patients in each schedule) was “Four”. For the same compound, the “drug-related adverse event: arthralgia” value ([6]; 217 patients) was 6.1%, the “drug-related adverse event: pruritis” value ([6]; 217 patients) was 5.4% and the “drug-related adverse event: pyrexia” value ([6]; 217 patients) was 3.6%. For the same compound, the “patients with grade 3/4 drug-related adverse events” value ([6]; 217 patients) was “Six”.
